Assay results from US9453019B2, “Linked purine pterin HPPK inhibitors useful as antibacterial agents” (THE UNITED STATES OF AMERICA, AS REPRESENTED BY THE …, priority 2010, dated 2016).

What was measured:
[1] = Stability of the compounds (stated in words, no method given); format: physicochemical; conditions: qualitative statement; no conditions given
HPPK = HPPK (Escherichia coli, UniProt P26281); test: Fluorometric titration binding study with HPPK; conditions: room temperature; 100 mM Tris-HCl, pH 8.3; fluorescence titration, nonlinear least-squares analysis
Method: Binding studies were carried out at room temperature. Protein (HPPK) and ligand stock solutions were made in 100 mM Tris-HCl, pH 8.3, and their concentrations were determined spectrophotometrically using the following extinction coefficients: 21600 M^−1 cm^−1 at 280 nm for HPPK, 7000 M^−1 cm^−1 at 366 nm for the pteridone bisubstrate inhibitors such as compound 13, and 7124 M^−1 cm^−1 at 380 nm for the tetrahydropteridine bisubstrate inhibitors such as 28. A 3-mL dilute inhibitor solution in a fluorometric cuvette was titrated with the protein stock solution. Fluorescence was measured on a Horiba Jobin Yvon FluoroMax-4 fluorometer. The excitation wavelength and slit were 364-380 and 2-3 nm, respectively, and the emission wavelength and slit were 450-482 and 2-5 nm, respectively. […] For these HPPK preparations, a control experiment, in which a 3-mL buffer solution was titrated with the protein solution, was performed. The control data was subtracted from the titration data. The corrected titration data was then analyzed by nonlinear least-squares regression using the software Origin and the equation:
[formula] where Fobs is the observed fluorescence, εf and εb are the fluorescence coefficients of the ligand in the free and protein-bound states, respectively, Lt is the total concentration of the ligand, and Et is the total concentration of HPPK. […]

Sequence of HPPK (P26281 whole entry): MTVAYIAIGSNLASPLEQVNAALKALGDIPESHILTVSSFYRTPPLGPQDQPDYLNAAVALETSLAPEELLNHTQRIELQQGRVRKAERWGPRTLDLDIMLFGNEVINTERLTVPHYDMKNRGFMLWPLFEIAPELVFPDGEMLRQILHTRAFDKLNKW

Nc1nc2ncc(CNCCN3CCC(SC[C@H]4O[C@@H](n5cnc6c(N)ncnc65)C(O)C4O)CC3)nc2c(=O)[nH]1 (stereo in doubt) [Compound 13, 2-Amino-6-[(2-{4-[5-(6-amino-purin-9-yl)-3,4-dihydroxy-tetrahydro-furan-2-ylmethylsulfanyl]-piperidin-1-yl}-ethylamino)-methyl]-3H-pteridin-4-one]
Stability of compound [1]: stable | Kd (HPPK): 590 nM

CC1(C)Nc2nc(N)[nH]c(=O)c2N=C1C(=O)NCCN1CCC(SC[C@H]2O[C@@H](n3cnc4c(N)ncnc43)C(O)C2O)CC1 (stereo in doubt) [Compound 28, 2-Amino-7,7-dimethyl-4-oxo-3,4,7,8-tetrahydro-pteridine-6-carboxylic acid (2-{4-[5-(6-amino-purin-9-yl)-3,4-dihydroxy-tetrahydro-furan-2-ylmethylsulfanyl]-piperidin-1-yl}-ethyl)-amide]
Stability of compound [1]: stable | Kd (HPPK): 330 nM
